Experimental data as given in patent publication US20150094474A1, “AGRICULTURAL CHEMICALS” (Redx Pharma Ltd., priority 2012, published 2015).

How the values were obtained:
barley = assay: Herbicidal bioassay, barley (% necrosis); assay type: in vivo
Description: (§1) A laboratory bioassay was conducted to screen ten compounds (Fluazifop (25); Ethyl fluazifop (62); five fluazifop analogues: 27, 28, 63, 64 and 65; mesofulfuron (6); and two mesosulfuron analogues: 8 and 61. for activity against Lolium perenne, barley, peas and Chinese cabbage. Compounds were diluted in DMSO. Controls were performed using both DMSO and water.
(§2) Plants were obtained as seeds and were grown to the 2-4 true leaf stage. Plants were grown individually in seed trays. Each plant (in an approximately 3 cm diameter plug) was then detached from the tray for spraying. Environmental conditions were closely monitored and recorded and were within the optimal range of the target species.
(§3) The compounds were screened at a range of six concentrations, eg. 0.05%, 0.01%, 0.005%, 0.001%, 0.0005% and 0.0001%. Treatments will be applied directly onto the plants, using a potter tower.
(§4) One plant of each type will be sprayed using a potter tower. The 4 different types of weeds will be placed in a 10 cm diameter area underneath the potter sprayer and sprayed simultaneously. The growth of the plants and any Phytotoxicity effects will then be assessed at specified growth intervals, according to EPPO guideline PP1/135. Five replicates will be performed for each treatment, for each species.

peas = assay: Herbicidal bioassay, peas (% necrosis); assay type: in vivo
Description: as §1, §2, §3, §4

## COc1cc(OC)nc(NC(=O)NS(=O)(=O)c2cc(CNS(C)(=O)=O)ccc2CO)n1 [Compound 8, 1-(4,6-Dimethoxypyrimidin-2-yl)-3-[2-(hydroxymethyl)-5-(methanesulfonamidomethyl)phenyl]sulfonyl-urea]
barley; Dose 0.000001, Day 0
  Sum of % necrosis in barley: C (less than 50% necrosis)
barley; Dose 0.000001, Day 1
  Sum of % necrosis in barley: C (less than 50% necrosis)
barley; Dose 0.000001, Day 3
  Sum of % necrosis in barley: C (less than 50% necrosis)
barley; Dose 0.000001, Day 7
  Sum of % necrosis in barley: C (less than 50% necrosis)
barley; Dose 0.000001, Day 10
  Sum of % necrosis in barley: C (less than 50% necrosis)
barley; Dose 0.000001, Day 14
  Sum of % necrosis in barley: C (less than 50% necrosis)
barley; Dose 0.000005, Day 0
  Sum of % necrosis in barley: C (less than 50% necrosis)
barley; Dose 0.000005, Day 1
  Sum of % necrosis in barley: C (less than 50% necrosis)
barley; Dose 0.000005, Day 3
  Sum of % necrosis in barley: C (less than 50% necrosis)
barley; Dose 0.000005, Day 7
  Sum of % necrosis in barley: C (less than 50% necrosis)
barley; Dose 0.000005, Day 10
  Sum of % necrosis in barley: C (less than 50% necrosis)
barley; Dose 0.000005, Day 14
  Sum of % necrosis in barley: C (less than 50% necrosis)
barley; Dose 0.00001, Day 0
  Sum of % necrosis in barley: C (less than 50% necrosis)
barley; Dose 0.00001, Day 1
  Sum of % necrosis in barley: C (less than 50% necrosis)
barley; Dose 0.00001, Day 3
  Sum of % necrosis in barley: C (less than 50% necrosis)
barley; Dose 0.00001, Day 7
  Sum of % necrosis in barley: C (less than 50% necrosis)
barley; Dose 0.00001, Day 10
  Sum of % necrosis in barley: C (less than 50% necrosis)
barley; Dose 0.00001, Day 14
  Sum of % necrosis in barley: C (less than 50% necrosis)
barley; Dose 0.00005, Day 0
  Sum of % necrosis in barley: C (less than 50% necrosis)
barley; Dose 0.00005, Day 1
  Sum of % necrosis in barley: C (less than 50% necrosis)
barley; Dose 0.00005, Day 3
  Sum of % necrosis in barley: C (less than 50% necrosis)
barley; Dose 0.00005, Day 7
  Sum of % necrosis in barley: C (less than 50% necrosis)
barley; Dose 0.00005, Day 10
  Sum of % necrosis in barley: C (less than 50% necrosis)
barley; Dose 0.00005, Day 14
  Sum of % necrosis in barley: C (less than 50% necrosis)
barley; Dose 0.0001, Day 0
  Sum of % necrosis in barley: C (less than 50% necrosis)
barley; Dose 0.0001, Day 1
  Sum of % necrosis in barley: C (less than 50% necrosis)
barley; Dose 0.0001, Day 3
  Sum of % necrosis in barley: C (less than 50% necrosis)
barley; Dose 0.0001, Day 7
  Sum of % necrosis in barley: C (less than 50% necrosis)
barley; Dose 0.0001, Day 10
  Sum of % necrosis in barley: C (less than 50% necrosis)
barley; Dose 0.0001, Day 14
  Sum of % necrosis in barley: C (less than 50% necrosis)
barley; Dose 0.0005, Day 0
  Sum of % necrosis in barley: C (less than 50% necrosis)
barley; Dose 0.0005, Day 1
  Sum of % necrosis in barley: C (less than 50% necrosis)
barley; Dose 0.0005, Day 3
  Sum of % necrosis in barley: C (less than 50% necrosis)
barley; Dose 0.0005, Day 7
  Sum of % necrosis in barley: C (less than 50% necrosis)
barley; Dose 0.0005, Day 10
  Sum of % necrosis in barley: C (less than 50% necrosis)
barley; Dose 0.0005, Day 14
  Sum of % necrosis in barley: C (less than 50% necrosis)
peas; Dose 0.000001, Day 0
  Sum of % necrosis in Pea: C (less than 50% necrosis)
peas; Dose 0.000001, Day 1
  Sum of % necrosis in Pea: C (less than 50% necrosis)
peas; Dose 0.000001, Day 3
  Sum of % necrosis in Pea: B (50%-80% necrosis)
peas; Dose 0.000001, Day 7
  Sum of % necrosis in Pea: A (over 80% necrosis)
peas; Dose 0.000001, Day 10
  Sum of % necrosis in Pea: A (over 80% necrosis)
peas; Dose 0.000001, Day 14
  Sum of % necrosis in Pea: A (over 80% necrosis)
peas; Dose 0.000005, Day 0
  Sum of % necrosis in Pea: C (less than 50% necrosis)
peas; Dose 0.000005, Day 1
  Sum of % necrosis in Pea: C (less than 50% necrosis)
peas; Dose 0.000005, Day 3
  Sum of % necrosis in Pea: B (50%-80% necrosis)
peas; Dose 0.000005, Day 7
  Sum of % necrosis in Pea: B (50%-80% necrosis)
peas; Dose 0.000005, Day 10
  Sum of % necrosis in Pea: A (over 80% necrosis)
peas; Dose 0.000005, Day 14
  Sum of % necrosis in Pea: A (over 80% necrosis)
peas; Dose 0.00001, Day 0
  Sum of % necrosis in Pea: C (less than 50% necrosis)
peas; Dose 0.00001, Day 1
  Sum of % necrosis in Pea: C (less than 50% necrosis)
peas; Dose 0.00001, Day 3
  Sum of % necrosis in Pea: B (50%-80% necrosis)
peas; Dose 0.00001, Day 7
  Sum of % necrosis in Pea: A (over 80% necrosis)
peas; Dose 0.00001, Day 10
  Sum of % necrosis in Pea: A (over 80% necrosis)
peas; Dose 0.00001, Day 14
  Sum of % necrosis in Pea: A (over 80% necrosis)
peas; Dose 0.00005, Day 0
  Sum of % necrosis in Pea: C (less than 50% necrosis)
peas; Dose 0.00005, Day 1
  Sum of % necrosis in Pea: C (less than 50% necrosis)
peas; Dose 0.00005, Day 3
  Sum of % necrosis in Pea: B (50%-80% necrosis)
peas; Dose 0.00005, Day 7
  Sum of % necrosis in Pea: A (over 80% necrosis)
peas; Dose 0.00005, Day 10
  Sum of % necrosis in Pea: A (over 80% necrosis)
peas; Dose 0.00005, Day 14
  Sum of % necrosis in Pea: A (over 80% necrosis)
peas; Dose 0.0001, Day 0
  Sum of % necrosis in Pea: C (less than 50% necrosis)
peas; Dose 0.0001, Day 1
  Sum of % necrosis in Pea: C (less than 50% necrosis)
peas; Dose 0.0001, Day 3
  Sum of % necrosis in Pea: B (50%-80% necrosis)
peas; Dose 0.0001, Day 7
  Sum of % necrosis in Pea: A (over 80% necrosis)
peas; Dose 0.0001, Day 10
  Sum of % necrosis in Pea: A (over 80% necrosis)
peas; Dose 0.0001, Day 14
  Sum of % necrosis in Pea: A (over 80% necrosis)
peas; Dose 0.0005, Day 0
  Sum of % necrosis in Pea: C (less than 50% necrosis)
peas; Dose 0.0005, Day 1
  Sum of % necrosis in Pea: C (less than 50% necrosis)
peas; Dose 0.0005, Day 3
  Sum of % necrosis in Pea: B (50%-80% necrosis)
peas; Dose 0.0005, Day 7
  Sum of % necrosis in Pea: A (over 80% necrosis)
peas; Dose 0.0005, Day 10
  Sum of % necrosis in Pea: A (over 80% necrosis)
peas; Dose 0.0005, Day 14
  Sum of % necrosis in Pea: A (over 80% necrosis)
